Here are results for 28 compounds from patent US9828350B2, “5,6-dihydro-2H-[1,4]oxazin-3-yl-amine derivatives useful as inhibitors of beta-secretase (BACE)” (Janssen Pharmaceutica NV, priority 2010, dated 2017).

In test [1] the target is recombinant BACE1 protein (Homo sapiens, UniProt P56817). The test is described as follows: Biochemical FRET based assay. The note with it: recombinant BACE1 1 μg/ml, 120 minutes at room temperature, pH 5.0; for IC50: read-out: Biochemical FRET based assay pIC50 (converted). The text has this:
Biochemical FRET Based Assay
This assay is a Fluorescence Resonance Energy Transfer Assay (FRET) based assay. The substrate for this assay is an APP derived 13 amino acids peptide that contains the ‘Swedish’ Lys-Met/Asn-Leu mutation of the amyloid precursor protein (APP) beta-secretase cleavage site. This substrate also contains two fluorophores: (7-methoxycoumarin-4-yl) acetic acid (Mca) is a fluorescent donor with excitation wavelength at 320 nm and emission at 405 nm and 2,4-Dinitrophenyl (Dnp) is a proprietary quencher acceptor. […] Upon cleavage by BACE1, the fluorophore Mca is separated from the quenching group Dnp, restoring the full fluorescence yield of the donor. The increase in fluorescence is linearly related to the rate of proteolysis.
Briefly in a 384-well format recombinant BACE1 protein in a final concentration of 1 μg/ml is incubated for 120 minutes at room temperature with […] substrate in incubation buffer (40 mM Citrate buffer pH 5.0, 0.04% PEG, 4% DMSO) in the absence or presence of compound. Next the amount of proteolysis is directly measured by fluorescence measurement at T=0 and T=120 (excitation at 320 nm and emission at 405 nm). Results are expressed in RFU (Relative Fluorescence Units), as difference between T120 and TO.

Test [2] has as its system Abeta total. The experiment in a line: Cellular αLisa assay in SKNBE2 cells, Abeta total. The format is cell-based, human. The conditions noted are these: incubated for 18 hours; for IC50: Homo sapiens, SKNBE2, 18 h, read-out: Cellular αLisa assay in SKNBE2 cells Abetatotal pIC50 (converted). Here is the method: (§1) Cellular αLisa Assay in SKNBE2 Cells
(§2) In two αLisa assays the levels of Abeta total and Abeta 1-42 produced and secreted into the medium of human neuroblastoma SKNBE2 cells are quantified. The assay is based on the human neuroblastoma SKNBE2 expressing the wild type Amyloid Precursor Protein (hAPP695). The compounds are diluted and added to these cells, incubated for 18 hours and then measurements of Abeta 1-42 and Abeta total are taken. Abeta total and Abeta 1-42 are measured by sandwich αLisa. αLisa is a sandwich assay using biotinylated antibody AbN/25 attached to streptavidin coated beads and antibody Ab4G8 or cAb42/26 conjugated acceptor beads for the detection of Abeta total and Abeta 1-42 respectively. In the presence of Abeta total or Abeta 1-42, the beads come into close proximity. The excitation of the donor beads provokes the release of singlet oxygen molecules that trigger a cascade of energy transfer in the acceptor beads, resulting in light emission. Light emission is measured after 1 hour incubation (excitation at […] and emission at 615 nm).

The test system of test [3] is Abeta 1-42. The experiment in a line: Cellular αLisa assay in SKNBE2 cells, Abeta 1-42. In kind it is cell-based, human. The note with it: incubated for 18 hours; for IC50: Homo sapiens, SKNBE2, 18 h, read-out: Cellular αLisa assay in SKNBE2 cells Abeta 42 pIC50 (converted). As for the experimental part: as §1, §2

Sequence of recombinant BACE1 protein (P56817 46-501): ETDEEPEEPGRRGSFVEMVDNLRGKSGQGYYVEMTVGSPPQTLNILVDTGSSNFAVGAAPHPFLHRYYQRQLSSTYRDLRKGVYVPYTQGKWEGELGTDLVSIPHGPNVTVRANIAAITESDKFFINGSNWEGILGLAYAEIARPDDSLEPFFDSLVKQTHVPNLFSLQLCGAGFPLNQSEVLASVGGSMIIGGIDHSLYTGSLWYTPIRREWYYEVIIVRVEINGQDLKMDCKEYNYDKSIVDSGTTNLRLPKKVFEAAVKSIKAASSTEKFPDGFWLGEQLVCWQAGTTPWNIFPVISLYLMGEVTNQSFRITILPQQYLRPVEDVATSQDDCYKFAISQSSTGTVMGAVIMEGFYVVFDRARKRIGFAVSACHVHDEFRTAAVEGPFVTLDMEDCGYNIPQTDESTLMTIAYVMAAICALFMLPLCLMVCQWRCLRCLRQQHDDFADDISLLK

With `COc1cncc(-c2ccc(F)c(C3(C)COCC(N)=N3)c2)c1` (single isomer, unassigned) [Compound 56], in test [1], the “Biochemical FRET based assay pIC50” value turned out to be 5.69. Besides, the “Cellular αLisa assay in SKNBE2 cells Abetatotal pIC50” value in test [2] stood at 7.1. For the same compound, the “Cellular αLisa assay in SKNBE2 cells Abeta 42 pIC50” value in test [3] is 7.02.
For the compound `COc1cnc(C(=O)Nc2cccc(C3(C)COC(F)(C(F)(F)F)C(N)=N3)c2)cn1` (single isomer, unassigned) [Compound 69], the IC50 in test [1] is 5.13 µM. Besides, the “Cellular αLisa assay in SKNBE2 cells Abetatotal pIC50” value in test [2] was below 5. Moreover, the “Cellular αLisa assay in SKNBE2 cells Abeta 42 pIC50” value in test [3] amounted to 5.13.
Take `CC1(c2cccc(NC(=O)c3ccc(Cl)cn3)c2)COC(F)(C(F)(F)F)C(N)=N1` (single isomer, unassigned) [Compound 70]: in test [1], the “Biochemical FRET based assay pIC50” value worked out at 5.77. Besides, the “Cellular αLisa assay in SKNBE2 cells Abetatotal pIC50” value in test [2] is reported as 5.31. For the same compound, the “Cellular αLisa assay in SKNBE2 cells Abeta 42 pIC50” value in test [3] was 5.17.
For `CC1(c2cccc(NC(=O)c3ccc(Cl)cn3)c2)COC(F)(C(F)(F)F)C(N)=N1` (single isomer, unassigned) [Compound 71], in that order: 6.25, below 5 and below 5.
In the case of `CC1(c2cc(-c3cncnc3)c(F)cc2F)N=C(N)COC1F` (single isomer, unassigned) [Compound 81], the IC50 was 8.91 µM in test [1], 1.2 µM in test [2] and 1.23 µM in test [3].
Take `COc1cncc(-c2cccc(C3(C)N=C(N)COC3F)c2)c1` (single isomer, unassigned) [Compound 88]: the IC50 in test [1] is above 30.2 µM. Moreover, in test [2], the “Cellular αLisa assay in SKNBE2 cells Abetatotal pIC50” value is 5.65. Also, the “Cellular αLisa assay in SKNBE2 cells Abeta 42 pIC50” value in test [3] stood at 5.66.
For the compound `COc1cncc(-c2cccc(C3(C)N=C(N)COC3F)c2)c1` (single isomer, unassigned) [Compound 89], the IC50 in test [1] was 5.5 µM. The “Cellular αLisa assay in SKNBE2 cells Abetatotal pIC50” value in test [2] worked out at 6.67. Also, the “Cellular αLisa assay in SKNBE2 cells Abeta 42 pIC50” value in test [3] turned out to be 6.51.
In the case of `CC1(c2cccc(NC(=O)c3ccc(Cl)cn3)c2)N=C(N)COC1F` (single isomer, unassigned) [Compound 90], the “Biochemical FRET based assay pIC50” value in test [1] was determined as 6.37. Moreover, the “Cellular αLisa assay in SKNBE2 cells Abetatotal pIC50” value in test [2] came to 7.76. Further, the “Cellular αLisa assay in SKNBE2 cells Abeta 42 pIC50” value in test [3] was determined as 7.76.
Consider `COc1cncc(-c2cccc(C3(C)N=C(N)COC3F)c2)c1` (single isomer, unassigned) [Compound 92], for which the IC50 in test [1] was 15.1 µM. In addition, the “Cellular αLisa assay in SKNBE2 cells Abetatotal pIC50” value in test [2] turned out to be 5.51. Also, in test [3], the “Cellular αLisa assay in SKNBE2 cells Abeta 42 pIC50” value was found to be 5.47.
In the case of `CC1(c2cccc(-c3cncnc3)c2)N=C(N)COC1F` (single isomer, unassigned) [Compound 95], the IC50 in test [1] is 1.41 µM. For the same compound, the “Cellular αLisa assay in SKNBE2 cells Abetatotal pIC50” value in test [2] came out at 6.5. Further, the “Cellular αLisa assay in SKNBE2 cells Abeta 42 pIC50” value in test [3] came out at 6.48.
`CC1(c2cccc(-c3cncnc3)c2)N=C(N)COC1F` (single isomer, unassigned) [Compound 97]: the IC50 in test [1] was 6.17 µM. The “Cellular αLisa assay in SKNBE2 cells Abetatotal pIC50” value in test [2] is 6.87. Besides, in test [3], the “Cellular αLisa assay in SKNBE2 cells Abeta 42 pIC50” value is 6.86.
For `COc1cncc(-c2cccc(C3(C)N=C(N)COC3C(F)(F)F)c2)c1` (single isomer, unassigned) [Compound 101], in that order: 0.178 µM, 7.7 and 7.71.
Turning to `COc1cncc(-c2cccc(C3(C)N=C(N)COC3C(F)(F)F)c2)c1` (single isomer, unassigned) [Compound 102], in test [1], the IC50 is above 30.2 µM. Besides, the “Cellular αLisa assay in SKNBE2 cells Abetatotal pIC50” value in test [2] was below 5. The “Cellular αLisa assay in SKNBE2 cells Abeta 42 pIC50” value in test [3] is given as below 5.
In the case of `COc1cncc(-c2cccc(C3(C)N=C(N)COC3C(F)(F)F)c2)c1` (single isomer, unassigned) [Compound 103], in test [1], the IC50 is 2.09 µM. Also, the “Cellular αLisa assay in SKNBE2 cells Abetatotal pIC50” value in test [2] is listed as 6.35. Further, the “Cellular αLisa assay in SKNBE2 cells Abeta 42 pIC50” value in test [3] came to 6.38.
`COc1cncc(-c2cccc(C3(C)N=C(N)COC3C(F)(F)F)c2)c1` (single isomer, unassigned) [Compound 104]: the IC50 in test [1] was 9.33 µM. In test [2], the “Cellular αLisa assay in SKNBE2 cells Abetatotal pIC50” value stood at 5.82. In test [3], the “Cellular αLisa assay in SKNBE2 cells Abeta 42 pIC50” value is listed as 5.8.
For the compound `CC1(c2cc(-c3cncnc3)ccc2F)N=C(N)COC1(F)C(F)(F)F` (single isomer, unassigned) [Compound 111], the IC50 in test [1] is 1.48 µM; in test [2], 0.49 µM; in test [3] it was 0.437 µM.
For the compound `CC1(c2cccc(-c3cncnc3)c2)N=C(N)COC1(F)C(F)(F)F` (single isomer, unassigned) [Compound 116], the IC50 in test [1] was above 30.2 µM. The “Cellular αLisa assay in SKNBE2 cells Abetatotal pIC50” value in test [2] stood at 5.06. The “Cellular αLisa assay in SKNBE2 cells Abeta 42 pIC50” value in test [3] was determined as 5.18.
For `COc1cncc(-c2cccc(C3(C)N=C(N)COC3(F)C(F)(F)F)c2)c1` (single isomer, unassigned) [Compound 119], in that order: 11.2 µM, 5.67 and 5.62.
As for `CC1(c2cccc(NC(=O)c3ccc(Cl)cn3)c2)N=C(N)COC1F` (single isomer, unassigned) [Compound 122], in test [1], the “Biochemical FRET based assay pIC50” value is below 4.52. In test [2], the “Cellular αLisa assay in SKNBE2 cells Abetatotal pIC50” value was found to be 5.04. For the same compound, the “Cellular αLisa assay in SKNBE2 cells Abeta 42 pIC50” value in test [3] was 5.19.
Regarding `CC1(c2cc(-c3cncnc3)ccc2F)N=C(N)COC1F` (single isomer, unassigned) [Compound 127], the IC50 in test [1] is above 30.2 µM. In addition, the “Cellular αLisa assay in SKNBE2 cells Abetatotal pIC50” value in test [2] is reported as below 5. Moreover, the “Cellular αLisa assay in SKNBE2 cells Abeta 42 pIC50” value in test [3] is listed as below 5.
With `COc1cnc(C(=O)Nc2cccc(C3(C)N=C(N)COC3F)c2)cn1` (single isomer, unassigned) [Compound 131], the IC50 in test [1] was 0.0355 µM. Besides, the “Cellular αLisa assay in SKNBE2 cells Abetatotal pIC50” value in test [2] came to 7.52. Also, the “Cellular αLisa assay in SKNBE2 cells Abeta 42 pIC50” value in test [3] is recorded as 7.54.
`COc1cnc(C(=O)Nc2cccc(C3(C)N=C(N)COC3F)c2)cn1` (single isomer, unassigned) [Compound 132]: the IC50 in test [1] was 1.1 µM. For the same compound, in test [2], the “Cellular αLisa assay in SKNBE2 cells Abetatotal pIC50” value is on record as 6.38. Moreover, in test [3], the “Cellular αLisa assay in SKNBE2 cells Abeta 42 pIC50” value worked out at 6.35.
For `CC1(c2cc(NC(=O)c3ncc(Cl)cc3F)ccc2F)N=C(N)COC1F` (single isomer, unassigned) [Compound 133], in that order: 0.0257 µM, 8.21 and 8.18.
Take `CC1(c2cccc(-c3cncnc3)c2)N=C(N)COC1(F)C(F)(F)F` (single isomer, unassigned) [Compound 139]: the IC50 in test [1] was above 30.2 µM. Also, in test [2], the “Cellular αLisa assay in SKNBE2 cells Abetatotal pIC50” value is below 5. Moreover, the “Cellular αLisa assay in SKNBE2 cells Abeta 42 pIC50” value in test [3] was below 5.
On to `CC1(c2cccc(-c3cncnc3)c2)N=C(N)COC1(F)C(F)(F)F` (single isomer, unassigned) [Compound 140], for which, in test [1], the IC50 was above 30.2 µM. Also, the “Cellular αLisa assay in SKNBE2 cells Abetatotal pIC50” value in test [2] was below 5. For the same compound, the “Cellular αLisa assay in SKNBE2 cells Abeta 42 pIC50” value in test [3] is given as below 5.
Turning to `COc1cncc(-c2cccc(C3(C)N=C(N)COC3(F)C(F)(F)F)c2)c1` (single isomer, unassigned) [Compound 141], in test [1], the IC50 was above 30.2 µM. The “Cellular αLisa assay in SKNBE2 cells Abetatotal pIC50” value in test [2] is below 5. In test [3], the “Cellular αLisa assay in SKNBE2 cells Abeta 42 pIC50” value is below 5.
Consider `COc1cncc(-c2cccc(C3(C)N=C(N)COC3(F)C(F)(F)F)c2)c1` (single isomer, unassigned) [Compound 142], for which the IC50 in test [1] was above 30.2 µM. For the same compound, the “Cellular αLisa assay in SKNBE2 cells Abetatotal pIC50” value in test [2] was below 5. Further, the “Cellular αLisa assay in SKNBE2 cells Abeta 42 pIC50” value in test [3] is on record as below 5.
Regarding `CC1(c2cccc(NC(=O)c3ccc(Cl)cn3)c2)COC(F)(C(F)(F)F)C(N)=N1` (single isomer, unassigned) [Compound 154], the “Biochemical FRET based assay pIC50” value in test [1] is reported as below 4.52. The “Cellular αLisa assay in SKNBE2 cells Abetatotal pIC50” value in test [2] was below 5. In test [3], the “Cellular αLisa assay in SKNBE2 cells Abeta 42 pIC50” value is recorded as below 5.
